One data set deals with bean seedlings. The data set is described as follows: Phytotoxicity on bean seedlings (Example 85). It is filed as in vivo. On the set-up: key: G = growth reduction; H = hormonal effects. Particulars: 80 ppm spray.
For another data set, the system named is Venturia inaequalis. The data set is described as follows: Apple scab control on sprayed apple seedlings (Example 82). It is filed as in vivo. Particulars: Venturia inaequalis; for pest or weed control at 100 ppm: 100 ppm spray, day before inoculation.
The next data set concerns Rhizoctonia solani. The data set is described as follows: Rice sheath blight control on sprayed rice seedlings (Example 87). It is filed as in vivo. The following applies: Rhizoctonia solani, 168 h, 100 ppm spray, day before inoculation. In a few lines: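 Disease ratings followed 7 days' growth-room incubation of seedlings given a bran/R. solani mycelium inoculum. Inoculation took place one day after spraying to run-off. The spray was a 100 ppm compound suspension in water containing 6% acetone and 250 ppm TREM 014.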

The test system of the next data set is 5 Phytophthora species. It is filed as cell-based. Particulars: 200.0 ppm in V-8 agar, 22° C., 6 days.
The next data set has as its system Phytophthora infestans. Briefly: whole plant or invertebrate. It is filed as in vivo. Particulars: Phytophthora infestans, in Solanum lycopersicum, 168 h, read-out: % Control of Tomato Late Blight, 100 ppm spray, day before inoculation.
In data set [1] the test system is Pythium aphanadermatum. The data set is described as follows: Pythium control on cotton, seed coating (Example 91). Type of data set: in vivo. The following applies: 168 h; for pest or weed control at 2 g/kg seed: 2 gm/kg seed. In a few lines:
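Cotton seeds coated with formulated compound at 2 gm/kg seed, air dried, and planted in soil amended with Pythium aphanadermatum, sand and corn meal. Held 1 week at room temperature before disease rating.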

The subject of a further data set is Erysiphe cichoracearum. The data set is described as follows: Cucumber powdery mildew control on sprayed cucumber seedlings (Example 80). Type of data set: in vivo. Particulars: Golovinomyces cichoracearum, 168 h; for pest or weed control at 100 ppm: 100 ppm spray, day before inoculation.
The test system of data set [2] is Puccinia recondita var. tritici. Briefly: Wheat leaf rust control on sprayed wheat seedlings (Example 79). Type of data set: in vivo. The following applies: Puccinia recondita, 168 h; for pest or weed control at 100 ppm: 100 ppm spray, day before inoculation. In a few lines:
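Disease was scored as leaf rust pustules 7 days after a 24 h, 20° saturated-humidity incubation of seedlings inoculated with P. recondita var. tritici spores. Inoculation followed by one day a run-off spray of 100 ppm compound in water containing 6% acetone and 250 ppm TREM 014.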

Another data set relates to Pyricularia oryzae. Briefly: whole plant or invertebrate. Particulars: Pyricularia oryzae, 168 h, read-out: % Control of Rice Blast, 100 ppm spray, day before inoculation. It is filed as in vivo.
For another data set, the system named is Erysiphe graminis. Briefly: Barley powdery mildew control on sprayed barley seedlings (Example 81). Type of data set: in vivo. The following applies: Blumeria graminis, 168 h; for pest or weed control at 100 ppm: 100 ppm spray, day before inoculation. In a few lines:
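Compounds at 100 ppm in water with 6% acetone and 250 ppm surfactant were sprayed to run-off on barley seedlings. Plants were inoculated with Erysiphe graminis spores the next day. Disease was rated after 7 days in a growth room.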

Another data set has as its system Cercospora arachidicola. The data set is described as follows: Peanut early leafspot control on sprayed peanut seedlings (Example 84). Type of data set: in vivo. The following applies: Mycosphaerella arachidis, 360 h, 100 ppm spray, day before inoculation; read-out: % Control Peanut Easly Leafspot.
A further data set relates to cucumber seedlings. Briefly: Phytotoxicity on cucumber seedlings (Example 80). The following applies: 100 ppm spray. On the set-up: key: G = growth reduction; H = hormonal effects. Type of data set: in vivo. In a few lines:
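Disease was rated 7 days after inoculation with powdery mildew spores, which followed one day after a run-off spray of 100 ppm compound in water with 6% acetone and 250 ppm TREM 014. Growth reduction or hormonal effects on the seedlings were recorded as phytotoxicity.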

The next data set relates to Monilinia fructicola. Briefly: Stone fruit brown rot control on dipped canned peach halves (Example 86). Particulars: 120 h, 100 ppm dip, percent growth inhibition of colonies after five days. The method, boiled down: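 Canned peach halves were dipped 3 min in a 100 ppm compound suspension (5% acetone, 700 ppm TREM 014 surfactant in water) and air-dried. Each was inoculated with two Monilinia fructicola mycelium pieces and incubated 5 days in sterile containers. Colony radii were measured, and percent control was expressed as growth inhibition versus untreated peaches.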

A further data set concerns Helminthosporium maydis. Briefly: Southern corn leaf blight control on sprayed corn seedlings (Example 83). It is filed as in vivo. Particulars: Bipolaris maydis, 192 h, 100 ppm spray, day before inoculation. In a few lines: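 Corn seedlings were sprayed to run-off with 100 ppm suspensions (6% acetone, 250 ppm TREM 014) and spore-inoculated the following day. Disease and growth reduction were rated after 24 h saturated humidity at 20° plus 7 days in a growth room.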

Data set [3] concerns Pythium aphanadermatum. Briefly: Pythium control on corn, seed coating (Example 92). Type of data set: in vivo. The following applies: 504 h, 2 gm/kg seed. The method, boiled down: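 Formulated compounds were coated onto corn seeds at 2 gm/kg seed, air-dried and sown in soil infested with Pythium aphanadermatum at a rate lethal to most untreated seeds. Seeds were held 2 weeks at 49° F, then 1 week at 70° F, before disease rating.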

In the next data set the test system is corn seedlings. The data set is described as follows: Phytotoxicity on corn seedlings (Example 83). Type of data set: in vivo. On the set-up: key: G = growth reduction; H = hormonal effects. Particulars: 100 ppm spray. As for the experimental part: The compounds of the previous examples were again dissolved in acetone in an amount equal to 6% of the final volume and then suspended at a concentration of 100 ppm in purified water containing 250 ppm of the surfactant TREM 014 (polyhydric alcohol esters). These suspensions were sprayed to the point of run-off on corn seedlings. The following day, the plants were inoculated with a spore suspension of Helminthosporium maydis, causal agent of southern corn leaf blight, and incubated in a saturated humidity chamber at 20° for 24 hours and then in a growth room for an additional 7 days, when disease ratings were made. Treated plants from successful treatments had few or no lesions while the untreated plants had numerous lesions on each leaf. Phytotoxicity expressed as growth reduction was observed on some of the plants in association with disease control.

For the next data set, the system named is apple seedlings. Briefly: Phytotoxicity on apple seedlings (Example 82). Also noted: key: G = growth reduction; C = chlorosis; B = burn. Type of data set: in vivo. As for the experimental part:
These suspensions were sprayed to the point of run-off on apple seedlings. The following day, the plants were inoculated with a spore suspension of the fungus Venturia inaequalis, causal agent of apple scab, and incubated in a saturated humidity chamber at 20° for 24 hours and then in a growth room for an additional 10-12 days. Treated plants from successful treatments had fewer apple scab lesions when compared to untreated plants which were covered with scab lesions. Phytotoxicity expressed as growth reduction was observed on some of the plants in association with disease control.

SMILES strings stand for the structures.

Turning to `C[Si](C)(Cn1cncn1)c1ccc(Cl)cc1Cl` [(2,4-Dichlorophenyl)dimethyl(1H-1,2,4-triazol-1-ylmethyl)silane], the Phytotoxicity on bean result in the data set with bean seedlings was “G”. For the same compound, the pest or weed control at 100 ppm came to 100% in the data set with Venturia inaequalis; 0% with Rhizoctonia solani; 0% with Phytophthora infestans; 100% in the data set with Erysiphe cichoracearum; 90% in data set [2]; 0% in the data set on Pyricularia oryzae. The pest or weed control at 100 ppm in the data set on Erysiphe graminis came out at 100%; with Cercospora arachidicola, 100%; with Helminthosporium maydis it was 90%. Besides, in the data set on 5 Phytophthora species, the “No. of 5 Phytophthora species controlled in vitro” value was found to be 0. For the same compound, the pest or weed control at 2 g/kg seed with Pythium aphanadermatum [1] is 0%. The Phytotoxicity on cucumber result in the data set with cucumber seedlings is “H”. Besides, the inhibition of growth at 100 µg/mL in the data set on Monilinia fructicola was found to be 100%.
Regarding `C[Si](C)(Cn1cncn1)c1ccc(Cl)cc1` [(4-Chlorophenyl)dimethyl(1H-1,2,4-triazol-1-ylmethyl)silane], the pest or weed control at 100 ppm in the data set on Venturia inaequalis is 100%; in the data set with Phytophthora infestans, 0%; in the data set on Erysiphe cichoracearum it was 100%; in data set [2], 100%; in the data set with Pyricularia oryzae it was 0%; in the data set on Cercospora arachidicola it was 90%. Moreover, in the data set on Helminthosporium maydis, the pest or weed control at 100 ppm stood at 0%. In the data set with Pythium aphanadermatum [1] (0.5 gm/kg seed), this compound displayed a pest or weed control at 0.5 g/kg seed of 53%. Also, the pest or weed control at 2 g/kg seed in the data set with Pythium aphanadermatum [3] was determined as 8%. In addition, the Phytotoxicity on corn entry in the data set on corn seedlings is recorded as “G”.
`C[Si](C)(Cn1cncn1)c1ccc(F)cc1` [Dimethyl(4-fluorophenyl)(1H-1,2,4-triazol-1-ylmethyl)silane]: the pest or weed control at 100 ppm with Venturia inaequalis amounted to 80%; in the data set on Rhizoctonia solani, 0%; with Phytophthora infestans, 0%; in the data set on Erysiphe cichoracearum, 100%; in data set [2], 100%; with Pyricularia oryzae, 0%. Further, the pest or weed control at 100 ppm in the data set on Cercospora arachidicola turned out to be 50%; with Helminthosporium maydis, 90%. The Phytotoxicity on apple entry in the data set with apple seedlings (100 ppm spray) is given as “C”. In the data set with cucumber seedlings, the Phytotoxicity on cucumber entry is listed as “G”.
As to `CCCCCCCCCCCC[Si](C)(C)Cn1cncn1` [Dodecyl(dimethyl)(1H-1,2,4-triazol-1-ylmethyl)silane], the figures for the pest or weed control at 400 ppm in the data set with Venturia inaequalis (applied at 400 ppm) and in the data set with Erysiphe cichoracearum (applied at 400 ppm) were 40% and 60%, respectively. Also, the pest or weed control at 200 ppm (in data set [2] (applied at 200 ppm); in the data set on Erysiphe graminis (applied at 200 ppm)) was 100% each time. Besides, the Phytotoxicity on apple entry in the data set with apple seedlings (applied at 400 ppm) is “B”. The pest or weed control at 100 ppm in the data set on Helminthosporium maydis stood at 0%.
On to `C[Si](Cn1cncn1)(c1ccc(Cl)cc1)c1ccc(Cl)cc1` [bis(4-Chlorophenyl)methyl(1H,-1,2,4-triazol-1-ylmethyl)silane], for which the Phytotoxicity on bean entry with bean seedlings was “G”. The pest or weed control at 100 ppm turned out to be 100% in the data set with Venturia inaequalis; 0% with Rhizoctonia solani; 0% in the data set on Phytophthora infestans; 100% in the data set on Erysiphe cichoracearum; 90% in data set [2]; 90% in the data set on Pyricularia oryzae. For the same compound, the pest or weed control at 100 ppm with Erysiphe graminis stood at 100%; in the data set with Cercospora arachidicola it was 100%; in the data set on Helminthosporium maydis, 80%. Further, the “No. of 5 Phytophthora species controlled in vitro” value in the data set on 5 Phytophthora species came to 0. The compound also showed a pest or weed control at 2 g/kg seed in the data set with Pythium aphanadermatum [1] of 0%. This compound yielded an inhibition of growth at 100 µg/mL with Monilinia fructicola of 95%.

As usually defined, the inhibition of growth is how much of the control response was suppressed.

The record behind these values is patent publication US4510136A (priority 1983, dated 1985).
